Assay results published in US9815796B2 (Merck Sharp & Dohme Corp., priority 2013, dated 2017).

Target: Rhesus PDE2A3 (Macaca mulatta, UniProt B3VTJ2)
Test: PDE2 fluorescence polarization (IMAP FP) inhibition assay, rhesus enzyme
Assay type: biochemical, rhesus macaque
Settings: Rhesus PDE2, Lab A, at 1 uM
Summary of the method: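 IMAP FP (mP from parallel and perpendicular fluorescence against substrate-only control) was read ≥1 h after adding binding reagent. The preceding 60 min room-temperature reaction contained FAM-cAMP (50 nM) and cGMP (1 uM) in pH 7.2 Tris buffer with MgCl2 and DTT. Enzyme was supernatant of sonicated AD293 cells expressing rhesus PDE2A3; compounds were 3-fold titrated, DMSO 1% final.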

Rhesus PDE2A3, sequence (B3VTJ2 1-941): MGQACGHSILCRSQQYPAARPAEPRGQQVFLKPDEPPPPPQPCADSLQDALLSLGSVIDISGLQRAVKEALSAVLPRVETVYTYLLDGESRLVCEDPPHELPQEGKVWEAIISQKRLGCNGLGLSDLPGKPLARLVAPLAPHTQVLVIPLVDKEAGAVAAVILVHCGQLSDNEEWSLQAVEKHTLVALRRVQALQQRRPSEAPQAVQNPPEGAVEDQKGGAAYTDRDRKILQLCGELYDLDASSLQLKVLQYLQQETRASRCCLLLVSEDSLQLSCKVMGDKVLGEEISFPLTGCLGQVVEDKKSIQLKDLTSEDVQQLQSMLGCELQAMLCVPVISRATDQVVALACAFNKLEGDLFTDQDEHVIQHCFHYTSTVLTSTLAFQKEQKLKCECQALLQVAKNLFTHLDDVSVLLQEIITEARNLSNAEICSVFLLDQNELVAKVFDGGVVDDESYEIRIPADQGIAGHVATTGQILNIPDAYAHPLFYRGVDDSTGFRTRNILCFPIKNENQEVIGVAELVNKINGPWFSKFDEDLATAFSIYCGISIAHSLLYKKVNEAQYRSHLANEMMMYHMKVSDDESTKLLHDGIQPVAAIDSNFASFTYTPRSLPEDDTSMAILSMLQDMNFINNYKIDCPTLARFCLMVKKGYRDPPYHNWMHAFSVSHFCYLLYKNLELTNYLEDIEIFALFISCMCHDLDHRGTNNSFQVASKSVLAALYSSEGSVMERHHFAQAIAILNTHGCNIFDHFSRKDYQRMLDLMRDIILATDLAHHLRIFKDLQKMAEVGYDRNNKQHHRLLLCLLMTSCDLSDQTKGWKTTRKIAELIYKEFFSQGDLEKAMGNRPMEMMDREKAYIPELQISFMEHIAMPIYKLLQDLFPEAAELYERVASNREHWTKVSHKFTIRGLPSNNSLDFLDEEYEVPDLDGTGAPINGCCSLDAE

Row | SMILES | Rhesus PDE2 % inh. at 1 uM - Lab A [% inh.]
1 | C[C@@H](NC(=O)c1cc(=O)[nH]c(-c2ccccc2)n1)c1cccc2ccccc12 [Example 354, N-[(1R)-1-naphthalen-1-ylethyl]-6-oxo-2-phenyl-1,6-dihydropyrimidine-4-carboxamide] | 42
2 | O=C(NCc1c(Cl)cc(C(F)(F)F)cc1Cl)c1cc(=O)[nH]c(-c2ccccc2)n1 [Example 156] | 9
3 | C[C@@H](NC(=O)c1cc(=O)[nH]c(-c2ccccc2)n1)c1ccc(C(F)(F)F)c2ccccc12 [Example 153] | 41

Same assay, conditions: Rhesus PDE2, Lab A; read-out: Rhesus PDE2 Ki (nM) - Lab A

Row | SMILES | Ki [nM]
4 | CC(NC(=O)c1cc(=O)[nH]c(-c2ccccc2)n1)c1ccc2c(c1)OCO2 (stereo not shown) [Example 376, N-[1-(1,3-benzodioxol-5-yl)ethyl]-6-oxo-2-phenyl-1,6-dihydropyrimidine-4-carboxamide] | ~672
5 | COc1ccc([C@@H](C)NC(=O)c2cc(=O)[nH]c(C3CC3)n2)cc1 [Example 216, 2-cyclopropyl-N-[(1R)-1-(4-methoxyphenyl)ethyl]-6-oxo-1,6-dihydropyrimidine-4-carboxamide] | 247
6 | CC(C)(NC(=O)c1cc(=O)[nH]c(-c2ncccn2)n1)c1ccc(SC(F)(F)F)c(F)c1 [Example 241, N-(1-{3-fluoro-4-[(trifluoromethyl)sulfanyl]phenyl}-1-methylethyl)-6-oxo-1,6-dihydro-2,2′-bipyrimidine-4-carboxamide] | 557
7 | Cc1nc(C(=O)NC(C)c2ccc(C(C)C)cc2)cc(=O)[nH]1 (single isomer, unassigned) [Example 306, (S)- or (R)-2-methyl-N-{1-[4-(1-methylethyl)phenyl]ethyl}-6-oxo-1,6-dihydropyrimidine-4-carboxamide] | 2380
8 | CC(NC(=O)c1cc(=O)[nH]c(C2CC2)n1)c1ccccc1C(F)(F)F (stereo not shown) [Example 220, 2-cyclopropyl-6-oxo-N-{1-[2-(trifluoromethyl)phenyl]ethyl}-1,6-dihydropyrimidine-4-carboxamide] | 10700
9 | C[C@H](c1ccc(C(F)(F)F)cc1)N(C)C(=O)c1cc(=O)[nH]c(C2CC2)n1 [Example 209] | 17400
10 | Cc1nc(C(=O)NC(c2ccc(F)cc2)c2ccc(C(F)(F)F)cc2)cc(=O)[nH]1 (stereo not shown) [Example 130, N-{(4-fluorophenyl)[4-(trifluoromethyl)phenyl]methyl}-2-methyl-6-oxo-1,6-dihydropyrimidine-4-carboxamide] | 715
11 | Cc1nc(C(=O)N[C@H](C)c2ccc([S+]([O-])C(F)(F)F)cc2)cc(=O)[nH]1 (stereo partly shown) [Example 330] | 809
12 | O=C(NCc1ccc(C(F)(F)F)cc1Cl)c1cc(=O)[nH]c(-c2ccccc2)n1 [Example 181, N-[2-chloro-4-(trifluoromethyl)benzyl]-6-oxo-2-phenyl-1,6-dihydropyrimidine-4-carboxamide] | 485
13 | CC(NC(=O)c1cc(=O)[nH]c(-c2ccccc2)n1)c1ncc(C(F)(F)F)cn1 (stereo not shown) [Example 170, 6-oxo-2-phenyl-N-{1-[5-(trifluoromethyl)pyrimidin-2-yl]ethyl}-1,6-dihydropyrimidine-4-carboxamide] | 2340
14 | CC(NC(=O)c1cc(=O)[nH]c(C2CC2)n1)c1ncc(C(F)(F)F)cn1 (stereo not shown) [Example 203, 2-cyclopropyl-6-oxo-N-{1-[5-(trifluoromethyl)pyrimidin-2-yl]ethyl}-1,6-dihydropyrimidine-4-carboxamide] | 4320
15 | C[C@@H](NC(=O)c1cc(=O)[nH]c(-c2ccccc2)n1)c1cccc2ccccc12 [Example 354, N-[(1R)-1-naphthalen-1-ylethyl]-6-oxo-2-phenyl-1,6-dihydropyrimidine-4-carboxamide] | > 1000
16 | Cc1nc(C(=O)N[C@H](C)c2ccc(-c3ccc(C(F)(F)F)cc3)cc2)cc(=O)[nH]1 [Example 318, 2-methyl-6-oxo-N-{(1R)-1-[4′-(trifluoromethyl)biphenyl-4-yl]ethyl}-1,6-dihydropyrimidine-4-carboxamide] | 73
17 | CC(NC(=O)c1cc(=O)[nH]c(-c2ccccc2)n1)c1ccncc1 (stereo not shown) [Example 358, 6-oxo-2-phenyl-N-(1-pyridin-4-ylethyl)-1,6-dihydropyrimidine-4-carboxamide] | 11600
18 | Cc1nc(C(=O)NC(C)c2ccc(-c3ccccc3)cc2)cc(=O)[nH]1 (single isomer, unassigned) [Example 308, (S)- or (R)-N-(1-biphenyl-4-ylethyl)-2-methyl-6-oxo-1,6-dihydropyrimidine-4-carboxamide] | 2500
19 | CN(Cc1cc(F)c(F)c(F)c1)C(=O)c1cc(=O)[nH]c(C2CC2)n1 [Example 206, 2-cyclopropyl-N-methyl-6-oxo-N-(3,4,5-trifluoromethyl)-1,6-dihydropyrimidine-4-carboxamide] | 24300
20 | Cc1nc(C(=O)N[C@@H](C)c2ccc(OC(F)F)cc2)cc(=O)[nH]1 [Example 56, (S)-N-(1-(4-(difluoromethoxy)phenyl)ethyl)-2-methyl-6-oxo-1,6-dihydropyrimidine-4-carboxamide] | 4590
21 | O=C(NCc1c(Cl)cc(C(F)(F)F)cc1Cl)c1cc(=O)[nH]c(-c2ccccc2)n1 [Example 156] | > 1000
22 | C[C@@H](NC(=O)c1cc(=O)[nH]c(-c2ccccc2)n1)c1ccc(C(F)(F)F)c2ccccc12 [Example 153] | > 1000
23 | Cc1nc(C(=O)N[C@H](C)c2ccc(-c3ccc(C(F)(F)F)nc3)cc2)cc(=O)[nH]1 [Example 321, 2-methyl-6-oxo-N-[(1R)-1-{4-[6-(trifluoromethyl)pyridin-3-yl]phenyl}ethyl]-1,6-dihydropyrimidine-4-carboxamide] | 911
24 | O=C(NCc1ccc(C2CC2)cc1)c1cc(=O)[nH]c(C2CC2)n1 [Example 221, 2-cyclopropyl-N-(4-cyclopropylbenzyl)-6-oxo-1,6-dihydropyrimidine-4-carboxamide] | 681
25 | C[C@@H](NC(=O)c1cc(=O)[nH]c(C2CC2)n1)c1ccc(C(F)(F)F)c2ccccc12 [Example 235, 2-cyclopropyl-6-oxo-N-{(1R)-1-[4-(trifluoromethyl)naphthalen-1-yl]ethyl}-1,6-dihydropyrimidine-4-carboxamide] | 274
26 | C[C@@H](NC(=O)c1cc(=O)[nH]c(-c2ccccc2)n1)c1ccc(CN(C)C)cc1 [Example 365, N-[(1R)-1-{4-[(dimethylamino)methyl]phenyl}ethyl]-6-oxo-2-phenyl-1,6-dihydropyrimidine-4-carboxamide] | 6850

Same assay, conditions: Rhesus PDE2, Lab B; read-out: Rhesus PDE2 Ki (nM) - Lab B

Row | SMILES | Ki [nM]
27 | CC(NC(=O)c1cc(=O)[nH]c(-c2ccccc2)n1)c1ccc2c(c1)OCO2 (stereo not shown) [Example 376, N-[1-(1,3-benzodioxol-5-yl)ethyl]-6-oxo-2-phenyl-1,6-dihydropyrimidine-4-carboxamide] | 891
28 | Cc1ccc([C@H](C)NC(=O)c2cc(=O)[nH]c(-c3ccccc3)n2)cc1 [Example 364, N-[(1S)-1-(4-methylphenyl)ethyl]-6-oxo-2-phenyl-1,6-dihydropyrimidine-4-carboxamide] | 3950
29 | COc1ccc(C(C)(C)NC(=O)c2cc(=O)[nH]c(-c3ccccc3)n2)cc1 [Example 460, N-[1-(4-methoxyphenyl)-1-methylethyl]-6-oxo-2-phenyl-1,6-dihydropyrimidine-4-carboxamide] | 371
30 | CC(C)c1ccc(CNC(=O)c2cc(=O)[nH]c(-c3ccccc3)n2)cc1 [Example 414, N-[4-(1-methylethyl)benzyl]-6-oxo-2-phenyl-1,6-dihydropyrimidine-4-carboxamide] | 136
31 | COc1ccc(C(C)(C)c2nc(C(=O)N[C@@H](c3ccc(SC(F)(F)F)cc3)C(C)(C)C)cc(=O)[nH]2)cc1 [Example 488, N-[(1R)-2,2-dimethyl-1-{4-[(trifluoromethyl)sulfanyl]phenyl}propyl]-2-[1-(4-methoxyphenyl)-1-methylethyl]-6-oxo-1,6-dihydropyrimidine-4-carboxamide] | 116
32 | C[C@H](O)[C@@H](NC(=O)c1cc(=O)[nH]c(C2CC2)n1)c1ccc(C(F)(F)F)cc1 [Example 442, 2-cyclopropyl-N-{(1S,2S)-2-hydroxy-1-[4-(trifluoromethyl)phenyl]propyl}-6-oxo-1,6-dihydropyrimidine-4-carboxamide] | > 2970
33 | O=C(NC1(c2ccccc2OC(F)(F)F)CCC1)c1cc(=O)[nH]c(-c2ccccc2)n1 [Example 411, 6-oxo-2-phenyl-N-{1-[2-(trifluoromethoxy)phenyl]cyclobutyl}-1,6-dihydropyrimidine-4-carboxamide] | 1460
34 | C[C@@H](NC(=O)c1cc(=O)[nH]c(-c2ccccc2)n1)c1cccc2ccccc12 [Example 354, N-[(1R)-1-naphthalen-1-ylethyl]-6-oxo-2-phenyl-1,6-dihydropyrimidine-4-carboxamide] | 2800
35 | CC1(C(NC(=O)c2cc(=O)[nH]c(-c3ccccc3)n2)c2ccc(SC(F)(F)F)c(F)c2)CC1 (single isomer, unassigned) [Example 706, (S)- or (R)-N-((3-fluoro-4-((trifluoromethyl)thio)phenyl)(1-methylcyclopropyl)methyl)-6-oxo-2-phenyl-1,6-dihydropyrimidine-4-carboxamide] | > 2970
36 | COc1cc(C(F)(F)F)ccc1[C@H](C)NC(=O)c1cc(=O)[nH]c(-c2ccccc2)n1 [Example 403, N-{(1S)-1-[2-methoxy-4-(trifluoromethyl)phenyl]ethyl}-6-oxo-2-phenyl-1,6-dihydropyrimidine-4-carboxamide] | 1910
37 | Cc1nc(C(=O)N[C@H](C)c2ccc(-c3ccc(C(F)(F)F)cc3)cc2)cc(=O)[nH]1 [Example 318, 2-methyl-6-oxo-N-{(1R)-1-[4′-(trifluoromethyl)biphenyl-4-yl]ethyl}-1,6-dihydropyrimidine-4-carboxamide] | 189
38 | C[C@H](NC(=O)c1cc(=O)[nH]c(-c2ccccc2)n1)c1ccc([N+](=O)[O-])cc1 [Example 458, N-[(1S)-1-(4-nitrophenyl)ethyl]-6-oxo-2-phenyl-1,6-dihydropyrimidine-4-carboxamide] | 8130
39 | C[C@@H](NC(=O)c1cc(=O)[nH]c(-c2ccccc2)n1)c1ccc(C(F)(F)F)c2ccccc12 [Example 153] | ~1970
40 | C[C@H](O)[C@@H](NC(=O)c1cc(=O)[nH]c(-c2ncccn2)n1)c1ccc(C(F)(F)F)cc1 [Example 430, N-{(1S,2)S-2-hydroxy-1-[4-(trifluoromethyl)phenyl]propyl}-6-oxo-1,6-dihydro-2,2′-bipyrimidine-4-carboxamide] | > 2970
41 | O=C(N[C@@H]1CCCc2cc(C(F)(F)F)ccc21)c1cc(=O)[nH]c(-c2ncccn2)n1 [Example 433, 6-oxo-N-[(1R)-6-(trifluoromethyl)-1,2,3,4-tetrahydronaphthalen-1-yl]-1,6-dihydro-2,2′-bipyrimidine-4-carboxamide] | ~1430
42 | CC(C)(NC(=O)c1cc(=O)[nH]c(-c2ccccc2)n1)c1ccccc1 [Example 390, N-(1-methyl-1-phenylethyl)-6-oxo-2-phenyl-1,6-dihydropyrimidine-4-carboxamide] | 1700
43 | CC(C)(NC(=O)c1cc(=O)[nH]c(-c2ccccc2)n1)c1cccc(Br)c1 [Example 400, N-[1-(3-bromophenyl)-1-methylethyl]-6-oxo-2-phenyl-1,6-dihydropyrimidine-4-carboxamide] | 1070
